Structures can show the parent of a compound that is named as a salt.
How the values were obtained:
[1] = target: T1, recombinant full-length WRN protein (1-1432) (Homo sapiens, UniProt Q14191); assay: WRN unwinding activity, fluorogenic 384-well assay (Example A); format: biochemical; conditions: WRN unwinding activity, 4 hr; Table 2; read-out: 4 hr UNW pIC50 (converted)
T1 construct: recombinant full-length WRN protein (1-1432)
Summary of the method: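 200 pM enzyme (2× stock) preincubated with compound 4 h at ambient temperature, then 200 μM ATP and 12 nM quenched TAMRA-labelled dsDNA (2× stocks) added for 60 min; EDTA-quenched. Buffer 25 mM Tris pH 8.0, 5 mM NaCl, 2 mM MgCl2. Fluorescence at 525/598 nm; pIC50 from four-parameter fit.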

[2] = tested on: SW48 human colorectal cancer cells (MSI-H cancer cells); assay: SW48 cell viability, CellTiter-Glo, 120 hours (Example B); conditions: Table 2; for CC50: Homo sapiens, SW48, 120 h, read-out: SW48 pCC50, SW48 cell viability, 120 hours incubation (converted)

T1 sequence (Q14191 whole entry): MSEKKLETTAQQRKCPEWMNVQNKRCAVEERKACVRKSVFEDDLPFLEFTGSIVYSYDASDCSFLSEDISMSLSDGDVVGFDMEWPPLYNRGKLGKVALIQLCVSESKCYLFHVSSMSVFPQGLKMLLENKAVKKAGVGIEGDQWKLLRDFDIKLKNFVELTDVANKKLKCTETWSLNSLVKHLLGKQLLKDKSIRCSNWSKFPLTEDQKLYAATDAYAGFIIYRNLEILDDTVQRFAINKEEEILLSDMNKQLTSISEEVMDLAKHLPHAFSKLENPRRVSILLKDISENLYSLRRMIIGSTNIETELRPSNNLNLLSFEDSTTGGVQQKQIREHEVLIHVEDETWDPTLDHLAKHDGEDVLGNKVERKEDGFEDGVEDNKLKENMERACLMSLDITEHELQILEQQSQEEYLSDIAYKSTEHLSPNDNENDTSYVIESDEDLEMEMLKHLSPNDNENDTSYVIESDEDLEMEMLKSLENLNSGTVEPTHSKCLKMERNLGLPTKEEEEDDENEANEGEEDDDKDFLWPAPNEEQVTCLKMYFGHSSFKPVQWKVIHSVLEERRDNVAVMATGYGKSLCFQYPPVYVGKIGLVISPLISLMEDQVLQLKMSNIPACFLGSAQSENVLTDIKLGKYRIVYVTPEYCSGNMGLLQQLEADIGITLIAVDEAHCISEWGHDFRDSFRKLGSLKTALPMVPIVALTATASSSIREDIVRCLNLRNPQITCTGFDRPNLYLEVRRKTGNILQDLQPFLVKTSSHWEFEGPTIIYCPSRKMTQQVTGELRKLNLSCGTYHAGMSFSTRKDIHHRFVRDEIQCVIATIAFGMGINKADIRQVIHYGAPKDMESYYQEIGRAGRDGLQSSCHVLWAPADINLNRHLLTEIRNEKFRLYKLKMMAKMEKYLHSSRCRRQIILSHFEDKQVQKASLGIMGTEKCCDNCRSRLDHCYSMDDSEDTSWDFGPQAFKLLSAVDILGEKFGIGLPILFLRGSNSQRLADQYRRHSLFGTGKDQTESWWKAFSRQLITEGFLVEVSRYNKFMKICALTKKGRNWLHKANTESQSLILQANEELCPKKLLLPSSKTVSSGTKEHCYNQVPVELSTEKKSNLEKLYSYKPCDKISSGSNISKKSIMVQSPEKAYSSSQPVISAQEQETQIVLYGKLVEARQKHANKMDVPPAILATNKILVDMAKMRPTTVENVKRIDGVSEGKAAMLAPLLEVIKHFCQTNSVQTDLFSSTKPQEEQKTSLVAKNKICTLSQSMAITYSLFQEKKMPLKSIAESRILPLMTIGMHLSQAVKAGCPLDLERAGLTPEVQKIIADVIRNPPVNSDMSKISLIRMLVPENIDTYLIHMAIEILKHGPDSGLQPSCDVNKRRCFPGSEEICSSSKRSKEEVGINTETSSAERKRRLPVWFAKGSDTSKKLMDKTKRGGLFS

Compound | IC50 [1] [nM] | CC50 [2] [nM] | SW48 pCC50 ([2]; SW48 cell viability, 120 hours incubation)
Cc1nc2cc(S(=O)(=O)N(C)c3ccc([C@@H]4C[C@@H](N5CCC(F)(F)C5)C[C@H](C(=O)Nc5ccc(C(F)(F)F)cc5F)[C@H]4C(=O)O)cc3)ccc2n1C (stereo in doubt) [Example 303, rel-(1R,2R,4S,6S)-4-(3,3-difluoropyrrolidin-1-yl)-2-((2-fluoro-4-(trifluoromethyl)phenyl)carbamoyl)-6-(4-((N,1,2-trimethyl-1H-benzo[d]imidazole)-5-sulfonamido)phenyl)cyclohexane-1-carboxylic acid] | 3980 | 25100 | 
O=C(O)[C@@H]1[C@@H](c2ccc(-c3cccs3)cc2)CCC[C@H]1C(=O)Nc1ccc(C(F)(F)F)cc1F [Example 31, (1R,2R,6S)-2-((2-fluoro-4-(trifluoromethyl)phenyl)carbamoyl)-6-(4-(thiophen-2-yl)phenyl)cyclohexane-1-carboxylic acid] | 100 | 10000 | 
Cc1nc2cc(S(=O)(=O)N(C)c3ccc([C@H]4CCC[C@@H](C(=O)Nc5ccc(C(F)(F)F)cc5F)[C@@H]4C(=O)O)cc3Br)ccc2n1C [Example 166, (1R,2S,6R)-2-(3-bromo-4-((N,1,2-trimethyl-1H-benzo[d]imidazole)-5-sulfonamido)phenyl)-6-((2-fluoro-4-(trifluoromethyl)phenyl)carbamoyl)cyclohexane-1-carboxylic acid] | 7.94 | 2510 | 
CN(c1ccc([C@H]2CCC[C@@H](C(=O)Nc3ccc(C(F)(F)F)cc3F)[C@@H]2C(=O)O)cc1)S(=O)(=O)c1ccc2c(c1)CCN(C(=O)C(F)(F)F)C2 [Example 111, (1R,2R,6S)-2-((2-fluoro-4-(trifluoromethyl)phenyl)carbamoyl)-6-(4-((N-methyl-2-(2,2,2-trifluoroacetyl)-1,2,3,4-tetrahydroisoquinoline)-6-sulfonamido)phenyl)cyclohexane-1-carboxylic acid] | 2.51 | 1580 | 
CN1CCC[C@H](c2cccc(S(=O)(=O)N(C)c3ccc([C@H]4CCC[C@@H](COc5ccc(C(F)(F)F)cc5)[C@@H]4C(=O)O)cc3)c2)C1 (single isomer, unassigned) [Example 217, rel-(1R,2S,6R)-2-(4-((N-methyl-3-((S*)-1-methylpiperidin-3-yl)phenyl)sulfonamido)phenyl)-6-((4-(trifluoromethyl)phenoxy)methyl)cyclohexane-1-carboxylic acid] | 126 | 10000 | 
C=C(F)C(=O)Nc1ccc([C@H]2CCC[C@@H](C(=O)Nc3ccc(C(F)(F)F)cc3F)[C@@H]2C(=O)O)cc1 (racemic) [Example 227, rac-(1R,2R,6S)-2-((2-fluoro-4-(trifluoromethyl)phenyl)carbamoyl)-6-(4-(2-fluoroacrylamido)phenyl)cyclohexane-1-carboxylic acid] | 79.4 | 15800 | 
N#Cc1ncc(-c2ccc([C@H]3CCC[C@@H](C(=O)Nc4ccc(C(F)(F)F)cc4F)[C@@H]3C(=O)O)cc2)cn1 [Example 54, (1R,2S,6R)-2-(4-(2-cyanopyrimidin-5-yl)phenyl)-6-((2-fluoro-4-(trifluoromethyl)phenyl)carbamoyl)cyclohexane-1-carboxylic acid] | 5.01 | 7940 | 
CN1CCC[C@@H](c2cccc(S(=O)(=O)N(C)c3ccc([C@H]4CCC[C@@H](COc5ccc(C(F)(F)F)cc5)[C@@H]4C(=O)O)cc3)c2)C1 (single isomer, unassigned) [Example 218, rel-(1R,2S,6R)-2-(4-((N-methyl-3-((R*)-1-methylpiperidin-3-yl)phenyl)sulfonamido)phenyl)-6-((4-(trifluoromethyl)phenoxy)methyl)cyclohexane-1-carboxylic acid] | 39.8 | 15800 | 
N#Cc1ccc(-c2ccc([C@H]3CCC[C@@H](C(=O)Nc4ccc(C(F)(F)F)cc4F)[C@@H]3C(=O)O)cc2)nn1 [Example 55, (1R,2S,6R)-2-(4-(6-cyanopyridazin-3-yl)phenyl)-6-((2-fluoro-4-(trifluoromethyl)phenyl)carbamoyl) cyclohexane-1-carboxylic acid] | 2.51 | 10000 | 
O=C(O)[C@@H]1[C@@H](c2ccc(-c3cccc4cnccc34)cc2)CCC[C@H]1C(=O)Nc1ccc(C(F)(F)F)cc1F [Example 2, (1R,2R,6S)-2-((2-fluoro-4-(trifluoromethyl)phenyl)carbamoyl)-6-(4-(isoquinolin-5-yl)phenyl)cyclohexane-1-carboxylic acid] | 1260 | 12600 | 
CN(c1ccc([C@H]2CCC[C@@H](C(=O)Nc3ccc(C(F)(F)F)cc3F)[C@@H]2C(=O)O)cc1)S(=O)(=O)c1ccc2oc(=O)n(C)c2c1 [Example 100, (1R,2S,6R)-2-(4-((N,3-dimethyl-2-oxo-2,3-dihydrobenzo[d]oxazole)-5-sulfonamido)phenyl)-6-((2-fluoro-4-(trifluoromethyl)phenyl)carbamoyl)cyclohexane-1-carboxylic acid] | 5.01 | 3980 | 
Cc1nc2cc(S(=O)(=O)N(C)c3ccc([C@H]4CCC[C@@H](C(=O)Nc5ccc(C(F)(F)F)cc5F)[C@@H]4C(=O)O)c(F)c3)ccc2n1C (single isomer, unassigned) [Example 375] | 100 |  | 4.7
Cc1nc2cc(S(=O)(=O)N(C)c3ccc([C@H]4CCC[C@@H](COc5ccc(C(F)(F)F)cc5)[C@@H]4C(=O)O)cc3)ccc2n1CCN [Example 216, (1R,2S,6R)-2-(4-((1-(2-aminoethyl)-N,2-dimethyl-1H-benzo[d]imidazole)-5-sulfonamido)phenyl)-6-((4-(trifluoromethyl)phenoxy)methyl)cyclohexane-1-carboxylic acid, 0.41 formic acid salt] | 5.01 | 12600 | 
O=C(O)[C@@H]1[C@@H](c2ccc(-c3cccc4sccc34)cc2)CCC[C@H]1C(=O)Nc1ccc(C(F)(F)F)cc1F [Example 35, (1R,2S,6R)-2-(4-(benzo[b]thiophen-4-yl)phenyl)-6-((2-fluoro-4-(trifluoromethyl)phenyl)carbamoyl) cyclohexane-1-carboxylic acid] | 2000 | 6310 | 
O=C(O)[C@@H]1[C@@H](c2ccc(-c3cccnc3)cc2)CCC[C@H]1C(=O)Nc1ccc(C(F)(F)F)cc1F [Example 8, (1R,2R,6S)-2-((2-fluoro-4-(trifluoromethyl)phenyl)carbamoyl)-6-(4-(pyridin-3-yl)phenyl)cyclohexane-1-carboxylic acid] | 3.98 | 7940 | 
Cc1nc2cc(S(=O)(=O)N(C)c3ccc([C@@H]4CCC[C@H](C(=O)Nc5ccc(C(F)(F)F)cc5F)[C@H]4C(=O)O)nc3)ccc2n1C (single isomer, unassigned) [Example 160] | 50.1 | 15800 | 
O=C(O)[C@@H]1[C@@H](c2ccc(-c3cccc4[nH]ncc34)cc2)CCC[C@H]1C(=O)Nc1ccc(C(F)(F)F)cc1F [Example 1, (1R,2S,6R)-2-(4-(1H-indazol-4-yl)phenyl)-6-((2-fluoro-4-(trifluoromethyl)phenyl)carbamoyl)cyclohexane-1-carboxylic acid] | 1000 | 10000 | 
CCO[C@@H]1C[C@H](C(=O)Nc2ccc(C(F)(F)F)cn2)[C@@H](C(=O)O)[C@H](c2ccc(N(C)S(=O)(=O)c3ccc4c(c3)nc(C)n4C)cc2)C1 (relative stereo) [Example 156, rel-(1R,2R,4R,6S)-4-ethoxy-2-((5-(trifluoromethyl)pyridin-2-yl)carbamoyl)-6-(4-((N,1,2-trimethyl-1H-benzo[d]imidazole)-5-sulfonamido)phenyl)cyclohexane-1-carboxylic acid] | 126 | 25100 | 
Cc1nc2cc(S(=O)(=O)N(C)c3ccc([C@H]4C[C@H](N)C[C@@H](C(=O)Nc5ccc(C(F)(F)F)cc5F)[C@@H]4C(=O)O)cc3)ccc2n1C (stereo in doubt) [Example 300, rel-(1R,2R,4S,6S)-4-amino-2-((2-fluoro-4-(trifluoromethyl)phenyl)carbamoyl)-6-(4-((N,1,2-trimethyl-1H-benzo[d]imidazole)-5-sulfonamido)phenyl)cyclohexane-1-carboxylic acid] | 1.58 | 12600 | 
Cc1nc2cc(S(=O)(=O)N(C)c3ccc([C@H]4CCC[C@@H](C(=O)NC56CC(C7CCCC7)(C5)C6)[C@@H]4C(=O)O)cc3)ccc2n1C [Example 187, (1R,2R,6S)-2-((3-cyclopentylbicyclo[1.1.1]pentan-1-yl)carbamoyl)-6-(4-((N,1,2-trimethyl-1H-benzo[d]imidazole)-5-sulfonamido)phenyl)cyclohexane-1-carboxylic acid, formic acid salt] | 6.31 | 3980 | 
Cc1nc2cc(S(=O)(=O)N(C)c3ccc([C@@H]4C[C@H](OC[C@H]5CCOC5)C[C@H](C(=O)Nc5ccc(C(F)(F)F)cc5F)[C@H]4C(=O)O)cc3)ccc2n1C (stereo in doubt) [Example 318, (1R*,2R*,4R*,6S*)-2-((2-fluoro-4-(trifluoromethyl)phenyl)carbamoyl)-4-(((S)-tetrahydrofuran-3-yl)methoxy)-6-(4-((N,1,2-trimethyl-1H-benzo[d]imidazole)-5-sulfonamido)phenyl)cyclohexane-1-carboxylic acid] | 200 | 12600 | 
Cc1nc2cc(S(=O)(=O)N(C)c3ccc([C@@H]4C[C@H](OCC5CC6CCC(C5)O6)C[C@H](C(=O)Nc5ccc(C(F)(F)F)cc5F)[C@H]4C(=O)O)cc3)ccc2n1C (single isomer, unassigned) [Example 359] | 1580 | 12600 | 
